Values after ≈ are worked out from the molar mass of the structure shown.
Legend:
[1] = tested on: Mycobacterium tuberculosis; conditions: cited from earlier work
[2] = tested on: methicillin and penicillin-resistant strains of Staphylococcus aureus; conditions: cited from earlier work
[3] = tested on: zymosan-induced rat paw oedema; experiment: Rat: anti-inflammatory activity on zymosan-induced paw oedema; format: in vivo; conditions: for % Diff. vs. control / Diff. vs. control: oedema; for % Diff. vs. control / Diff. vs. control / Oedema: oral; for Oedema: area under curve 0-24 h
Procedure: The anti-inflammatory activities of the test products have been assessed according to Di Rosa et al. [1971] on rat paw oedema induced by a subplantar injection of 4 mg di zymosan in 0.1 ml of isotonic saline. Paw volume has been measured pletismographically at 0, 1, 2, 4, 6 and 24 hours following the injection of zymosan, and expressed in ml of difference, with respect to the baseline volume. The test products, suspended in 5 ml/kg of 5% methylcellulose, have been administered with a gastric probe 30 minutes prior to the injection of zymosan. Celecoxib, a known COX-2 inhibitor, widely used clinically, and administered orally at a dose of 10 mg/kg, has been used as a reference standard. In order to express the treatment effects numerically, the areas under the curves of paw volume increase from 0 to 24 hours have been measured, thus giving the measurement of paw oedema in mlx24 hours.

[4] = tested on: zymosan-induced rat paw hyperalgesia; experiment: Rat: analgesic activity (Randall and Selitto) on zymosan-induced paw hyperalgesia; format: in vivo; conditions: for % Diff. vs. control: analgesia; for % Diff. vs. control / Diff. vs. control / Analgesia: oral; for Diff. vs. control: difference of the Analgesia Δgx24h values; for Analgesia: area under analgesimetric curve 0-24 h
Procedure: The analgesic activities of the test products have been evaluated using the technique of Randall and Selitto [1957] on hyperalgesia induced in rat paw by a subplantar injection of 4 mg di zymosan in 0.1 ml of isotonic saline. The mechanical nociceptive threshold has been determined using an analgesimeter (Ugo Basile, Varese, Italy) at 0, 1, 2, 4, 6 and 24 hours following the injection of zymosan. The analgesimeter measures the weight (in grams) applied to the paw which causes the reflex retraction of the paw itself. The nociceptive threshold has been expressed as the difference (in grams) in nociceptive threshold at time 0. The test products have been administered orally 30 minutes prior to the injection of zymosan. Celecoxib, a known COX-2 inhibitor, widely used clinically as an analgesic-anti-inflammatory, and administered orally at a dose of 10 mg/kg, has been used as a reference standard. In order to express the treatment effects numerically, the areas under the curves of the analgesimetric weight increase on the inflamed paw have been measured from 0 to 24 hours, thus giving the measurement in g x 24 hours of the area under the analgesimetric curve.

TNFα = experiment: Human blood: LPS stimulated production (expression) of TNFα; format: cell-based
Procedure: (§1) 200 µl samples have been stimulated with 1 µg/ml of LPS for 24 hours at 37°C [Hartel et al. 2004], in the presence of the test products. The cytokines released into the plasma have been analysed using a multiple system for cytokines (Bio-Plex, Bio-Rad Laboratories, Milan, Italy) allowing the simultaneous determination of IL-1, TNFα and IL-10.

IL-10 = experiment: Human blood: LPS stimulated production (expression) of IL-10; format: cell-based
Procedure: as §1, with “Venous blood has been collected from healthy volunteers and treated with 0.38% Na citrate in order to prevent coagulation. 200 µl” for “200 µl”

[5] = tested on: tibial joint cartilage explants; experiment: Rabbit cartilage explants: protection against IL-1β-induced cartilage degradation (GAG release); conditions: for %Diff. vs baseline: GAG release, protection positive
Procedure: The explants (2 x 2 mm) have been transferred to plates with wells and equilibrated for 48 hours at 37°C with high glucose DMEM plus 10% FCS and 50 µg/ml gentamycin. Explants have then been stimulated for 48 hours with 1 ng/ml IL-1β in aphenolic DMEM, 1 g/l glucose, 50 µg/ml gentamycin and 1% BSA. IL-1β elicits strong activation of the enzymes which depolymerise the proteoglycan aggregates of the cartilage matrix, resulting in its degradation, with the release of the breakdown products, mainly represented by the various glycosaminoglycans (GAG) making up the proteoglycan aggregates, into the culture liquid. […] In order to assess the effects of the test products on IL-1β-induced cartilage degradation, they have been added to the cartilage explants 20 minutes prior to stimulation with IL-1β. Cartilage degradation has been assessed by expressing the GAG released into the culture liquid as a percentage of the total GAG measured following complete digestion of the cartilage explants using papain.

PGE2 [6] = experiment: Rabbit chondrocytes: IL-1β-stimulated production of PGE2 (a COX-2 marker); format: cell-based, New Zealand white rabbits; conditions: for %Diff. vs control: PGE2, control = IL-1β
Procedure: Joint cartilage chondrocytes, obtained from New Zealand white rabbits, have been cultured using the technique described by Berenbaum [1994]. […] The test products have been added 20 minutes prior to stimulation. On completion of stimulation, the supernatant liquid has been collected and stored at -80°C until analysis. PGE2 in the culture medium has been measured using a radio-immunological method. The production of PGE2 in this model is a marker of the activity of the cyclooxygenases induced (COX-2) in cartilage from the proinflammatory stimulus represented by IL-1β.

PGE2 [7] = experiment: Human blood: production of PGE2 stimulated by 100 µg/ml LPS, marker of monocyte COX-2 activity; format: cell-based
Procedure: Human blood has been collected from health volunteers and made uncoagulable with 0.38% Na citrate. The test products have been added to 200 µl samples and then said samples stimulated with 100 µg/ml of LPS for 24 hours at 37°C. The PGE2 in the plasma, a marker of monocyte COX-2 activity [Panara et al. 1999], has been determined using a specific RIA method.

IL-1 = experiment: Human blood: LPS stimulated production (expression) of IL-1; format: cell-based
Procedure: as §1

TXB2 = experiment: Human blood: coagulation-induced thromboxane (TXB2) production, marker of platelet COX-1 activity; format: cell-based; conditions: for %Diff. vs control: TXB2
Procedure: The test products have been added to samples of human blood, collected from healthy volunteers, and then said samples allowed to coagulate by leaving to stand for 1 hour at 37°C. The thromboxane (TXB2) in the serum, a marker of platelet COX-1 activity (Panara et al. 1999], has been determined using a specific RIA method.

[8] = 10 mg/kg (Man, ASS as mangostin; ASS 10 = Man 10 + CGS 133)
[9] = 30 µM (Man, ASS as mangostin; ASS 30 = Man 30 + CGS 300)
[10] = oral doses of 40, 133 and 400 mg/kg
[11] = 1 µM (Man, ASS as mangostin; ASS 1 = Man 1 + CGS 10)
[12] = 10 µM (Man, ASS as mangostin; ASS 10 = Man 10 + CGS 100)

COc1c(O)cc2oc3cc(O)c(CC=C(C)C)c(O)c3c(=O)c2c1CC=C(C)C [α-mangostin]
MIC [1]: 6.25 µg/mL (≈ 15.2 µM)
MIC [2]: 1.6 µg/mL (≈ 3.9 µM)

Cc1ccc(-c2cc(C(F)(F)F)nn2-c2ccc(S(N)(=O)=O)cc2)cc1 [CLX, Celecoxib]
% Diff. vs. control [3, 8]: -30%
Diff. vs. control [3, 8]: -4.7 mlx24 hours
Oedema [3, 8]: 11.8 Δmlx24h
% Diff. vs. control [4, 8]: -46%
Diff. vs. control [4, 8]: -497
Analgesia [4, 8]: 574 Δgx24h

N[C@H]1C(O)O[C@H](CO)[C@@H](O)[C@@H]1O.N[C@H]1C(O)O[C@H](CO)[C@@H](O)[C@@H]1O.O=S(=O)(O)O.[Cl-].[Cl-].[Na+].[Na+] (stereo partly shown) [CGS, Crystalline Glucosamine Sulphate]
TNFα (TNFα; [9]): 14.70 ng/mL
TNFα (TNFα; 100 µM): 13.80 ng/mL
TNFα (TNFα; 300 µM): 12.70 ng/mL
%Diff. vs control (TNFα; TNFα, 30 µM (Man, ASS as mangostin; ASS 30 = Man 30 + CGS 300)): -7.9%
%Diff. vs control (TNFα; TNFα, 100 µM): -13.5%
%Diff. vs control (TNFα; TNFα, 300 µM): -20.4%
IC50 (TNFα; TNFα, Man/Eman and ASS as mangostin concentration): > 300000 nM
inhibitory activity (TNFα; TNFα, even at concentrations of 300 µM): weakly inhibitory
IL-10 (IL-10; [9]): 0.25 ng/mL
IL-10 (IL-10; 100 µM): 0.26 ng/mL
IL-10 (IL-10; 300 µM): 0.27 ng/mL
%Diff. vs control (IL-10; IL-10 (increase positive), 30 µM (Man, ASS as mangostin; ASS 30 = Man 30 + CGS 300)): -3.5%
%Diff. vs control (IL-10; IL-10, 100 µM): 1.6%
%Diff. vs control (IL-10; IL-10, 300 µM): 6.3%
stimulatory or inhibitory activity (IL-10; IL-10, concentrations tested 30, 100 and 300 µM): no significant stimulatory or inhibitory activity
% Diff. vs. control ([3]; 40 mg/kg): -1%
Diff. vs. control ([3]; 40 mg/kg): -0.1 mlx24 hours
% Diff. vs. control ([3]; 133 mg/kg): -2%
Diff. vs. control ([3]; 133 mg/kg): -0.3 mlx24 hours
% Diff. vs. control ([3]; 400 mg/kg): -4%
Diff. vs. control ([3]; 400 mg/kg): -0.6 mlx24 hours
anti-inflammatory activity [3, 10]: no significant anti-inflammatory activity
Oedema ([3]; 40 mg/kg): 15.6 Δmlx24h
Oedema ([3]; 133 mg/kg): 15.4 Δmlx24h
Oedema ([3]; 400 mg/kg): 15.2 Δmlx24h
protection against IL-1β-induced cartilage degradation ([5]; 1 µM): 41%
%GAG released [5, 11]: 41%
%GAG released ([5]; 3 µM): 25%
%GAG released ([5]; 10 µM): 16%
protection against IL-1β-induced cartilage degradation ([5]; 3 mM CGS): 64%
protection against IL-1β-induced cartilage degradation ([5]; 10 mM CGS): 77%
%Diff. vs baseline [5, 11]: 40.6%
%Diff. vs baseline ([5]; 3 µM): 63.8%
%Diff. vs baseline ([5]; 10 µM): 76.8%
EC50 ([5]; read-out: PC50, 50% protective concentration, ASS with reference to CGS): 2300 nM
PGE2 (PGE2 [6]; [11]): 200 ng/mL
PGE2 (PGE2 [6]; 3 µM (Man as mangostin)): 180 ng/mL
PGE2 (PGE2 [6]; 10 µM): 210 ng/mL
%Diff. vs control (PGE2 [6]; [11]): 6.4%
%Diff. vs control (PGE2 [6]; 3 µM (Man as mangostin)): -4.3%
%Diff. vs control (PGE2 [6]; 10 µM): -11.7%
inhibitory or stimulatory activity (PGE2 [6]; PGE2, concentrations of 1, 3 or 10 µM): no significant inhibitory or stimulatory activity
% Diff. vs. control ([4]; 40 mg/kg): 1%
% Diff. vs. control ([4]; 133 mg/kg): -6%
% Diff. vs. control ([4]; 400 mg/kg): -4%
Diff. vs. control ([4]; 40 mg/kg): 7
Diff. vs. control ([4]; 133 mg/kg): -59
Diff. vs. control ([4]; 400 mg/kg): -46
analgesic activity [4, 10]: no significant analgesic activity
Analgesia ([4]; 40 mg/kg): 1079 Δgx24h
Analgesia ([4]; 133 mg/kg): 1012 Δgx24h
Analgesia ([4]; 400 mg/kg): 1026 Δgx24h
PGE2 (PGE2 [7]; [12]): 22.7 ng/mL
PGE2 (PGE2 [7]; 30 µM (ASS as mangostin; ASS 30 = Man 30 + CGS 300)): 24.3 ng/mL
PGE2 (PGE2 [7]; 100 µM): 23.5 ng/mL
%Diff. vs control (PGE2 [7]; PGE2, 10 µM (Man, ASS as mangostin; ASS 10 = Man 10 + CGS 100)): -7.3%
%Diff. vs control (PGE2 [7]; PGE2, 30 µM (ASS as mangostin; ASS 30 = Man 30 + CGS 300)): -0.8%
%Diff. vs control (PGE2 [7]; PGE2, 100 µM): -4.1%
stimulatory or inhibitory activity (PGE2 [7]; PGE2, concentrations of 10, 30 or 100 µM): no significant stimulatory or inhibitory activity
IL-1 (IL-1; [9]): 4.65 ng/mL
IL-1 (IL-1; 100 µM): 4.72 ng/mL
IL-1 (IL-1; 300 µM): 4.69 ng/mL
%Diff. vs control (IL-1; IL-1, 30 µM (Man, ASS as mangostin; ASS 30 = Man 30 + CGS 300)): 2.1%
%Diff. vs control (IL-1; IL-1, 100 µM): 3.6%
%Diff. vs control (IL-1; IL-1, 300 µM): 3.1%
inhibitory activity (IL-1; IL-1, up to a concentration of 300 µM): no appreciable inhibitory activity
TXB2 (TXB2; [12]): 124 ng/mL
TXB2 (TXB2; 30 µM): 118 ng/mL
TXB2 (TXB2; 100 µM): 125 ng/mL
effect on the release of TXB2 (TXB2; Man 1, 3, 10, CGS 10, 30, 100 µM, Ass 1, 3, 10): no significant stimulatory or inhibitory activity
%Diff. vs control (TXB2; [12]): 3.3%
%Diff. vs control (TXB2; 30 µM): -1.7%
%Diff. vs control (TXB2; 100 µM): 4.2%

C[C@@H]1C[C@@H]([C@H](O)CC2CC(=O)NC(=O)C2)C(=O)[C@@H](C)C1 [CHX, Cycloheximide]
%GAG released ([5]; CHX 2.5 µg/ml): 12%
%Diff. vs baseline ([5]; CHX 2.5 µg/ml): 82.6%

COc1cc2oc3cc(O)c(OC)c(CC=C(C)C)c3c(=O)c2c(O)c1CC=C(C)C [β-mangostin]
MIC [1]: 6.25 µg/mL (≈ 14.7 µM)
MIC [2]: 1.6 µg/mL (≈ 3.77 µM)

Source: patent EP1889615A2, “Formulations for oral administration with a health promoting effect on the osteoarticular and muscleskeleton apparatus” (ROTTAPHARM S.P.A., priority 2006, dated 2008)
